From patent publication US20220402935A1, “HETEROCYCLIC COMPOUND” (FIMECS, INC., priority 2019, published 2022)

Columns and labels:
IRAK-M = molecular target: T1, IRAK-M (Homo sapiens, UniProt Q9Y616); test: IRAK-M binding inhibitory activity (KINOMEscan active site-dependent competitive assay); set-up: purchased Eurofins Discover X; settings: for IC50: second symbol of cell, read-out: IRAK-M binding inhibition IC50 value; for remaining binding at 1 µM: concentration of the test compound 1 μM, first symbol of cell, read-out: IRAK-M binding inhibition activity % Ctrl
T1 sequence (Q9Y616 1-596): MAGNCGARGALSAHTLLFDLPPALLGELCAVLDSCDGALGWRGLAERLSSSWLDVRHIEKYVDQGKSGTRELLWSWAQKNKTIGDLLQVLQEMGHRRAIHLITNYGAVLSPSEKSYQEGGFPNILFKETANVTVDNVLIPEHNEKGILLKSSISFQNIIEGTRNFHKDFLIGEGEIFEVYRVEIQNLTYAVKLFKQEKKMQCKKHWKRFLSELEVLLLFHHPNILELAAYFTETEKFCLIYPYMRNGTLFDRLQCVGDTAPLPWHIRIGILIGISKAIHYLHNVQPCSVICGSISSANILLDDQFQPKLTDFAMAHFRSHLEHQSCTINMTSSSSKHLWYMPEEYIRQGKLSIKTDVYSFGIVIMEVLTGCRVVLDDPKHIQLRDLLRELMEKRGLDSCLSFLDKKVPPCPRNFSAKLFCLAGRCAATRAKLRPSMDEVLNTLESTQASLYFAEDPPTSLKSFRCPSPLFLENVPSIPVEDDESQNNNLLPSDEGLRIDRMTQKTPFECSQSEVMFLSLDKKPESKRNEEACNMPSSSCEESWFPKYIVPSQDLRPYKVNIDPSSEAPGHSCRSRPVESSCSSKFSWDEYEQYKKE
Outline: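 Active site-dependent competition binding assay (KINOMEscan) against human IRAK-M. Result expressed as % Ctrl = (compound signal − positive control signal)/(DMSO signal − positive control signal) × 100, where DMSO = 100% Ctrl and control compound = 0% Ctrl.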

[1] = molecular target: T2, human XIAP_BIR3 domain purified protein (Homo sapiens, UniProt P98170); test: XIAP binding inhibitory activity (HTRF, b-Smac ligand); settings: for inhibition at 3 µM: concentration of the test compound 3 μM, first symbol of cell, read-out: XIAP binding inhibition rate; for IC50: second symbol of cell, read-out: XIAP binding inhibition IC50 value
T2 construct: purchased R & D
Outline: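 HTRF competition between compound and C-terminally biotinylated Smac peptide AVPIAQK for His-tagged XIAP BIR3, both diluted to 90 nM before addition, in pH 7.5 HEPES/NaCl/BSA/Triton buffer. Eu-cryptate anti-His and streptavidin-XL665 added, ≥4 h at room temperature in the dark; inhibition % from 665/615 nm ratio versus no-compound wells.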

T2 sequence (P98170 252-356 limits assumed): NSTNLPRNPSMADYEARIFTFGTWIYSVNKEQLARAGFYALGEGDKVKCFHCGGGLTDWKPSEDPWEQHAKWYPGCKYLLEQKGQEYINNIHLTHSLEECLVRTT

## CN[C@@H](C)C(=O)N[C@H](C(=O)N1CCN(C(=O)c2cc3cc(F)ccc3n2CC(=O)N2CCOC[C@@H]2COc2cc(CN3CCC(Oc4ccnc5ccsc45)CC3)on2)[C@@H](C)C1)C1CCCCC1 [Example 46, (S)-N-((S)-1-cyclohexyl-2-((S)-4-(5-fluoro-1-(2-oxo-2-((R)-3-(((5-((4-(thieno[3,2-b]pyridin-7-yloxy)piperidin-1-yl)methyl)isoxazol-3-yl)oxy)methyl)morpholino)ethyl)-1H-indole-2-carbonyl)-3-methylpiperazin-1-yl)-2-oxoethyl)-2-(methylamino)propanamide]
IRAK-M
  IC50: 100 to 300 nM
[1]
  inhibition at 3 µM: > 25%

## CN[C@@H](C)C(=O)N[C@H](C(=O)N1CCN(C(=O)c2cc3cc(F)ccc3n2CC(=O)N2CCOC[C@H]2COc2cc(CN3CCC(Oc4ccnc5ccsc45)CC3)on2)[C@@H](C)C1)C1CCCCC1 [Example 47, (S)-N-((S)-1-cyclohexyl-2-((S)-4-(5-fluoro-1-(2-oxo-2-((S)-3-(((5-((4-(thieno[3,2-b]pyridin-7-yloxy)piperidin-1-yl)methyl)isoxazol-3-yl)oxy)methyl)morpholino)ethyl)-1H-indole-2-carbonyl)-3-methylpiperazin-1-yl)-2-oxoethyl)-2-(methylamino)propanamide]
IRAK-M
  IC50: 1000 to 3000 nM
[1]
  inhibition at 3 µM: > 25%

## CN[C@@H](C)C(=O)N[C@H](C(=O)N1CCN(C(=O)c2cc3c(OCCOCCOCCOc4cc(CN5CCC(Oc6ccnc7ccsc67)CC5)on4)c(F)c(F)cc3n2C)CC1)C1CCCCC1 [Example 52, (S)-N-((S)-1-cyclohexyl-2-(4-(5,6-difluoro-1-methyl-4-(2-(2-(2-((5-((4-(thieno[3,2-b]pyridin-7-yloxy)piperidin-1-yl)methyl)isoxazol-3-yl)oxy)ethoxy)ethoxy)ethoxy)-1H-indole-2-carbonyl)piperazin-1-yl)-2-oxoethyl)-2-(methylamino)propanamide]
IRAK-M
  remaining binding at 1 µM: < 25%
[1]
  IC50: 300 to 3000 nM

## CN[C@@H](C)C(=O)N[C@H](C(=O)N1CCN(C(=O)c2ccc3c(c2)cc(C)n3CCOCCOCCOCCOc2cc(CN3CCC(Oc4ccnc5ccsc45)CC3)on2)CC1)C1CCCCC1 [Example 53, (S)-N-((S)-1-cyclohexyl-2-(4-(2-methyl-1-(2-(2-(2-(2-((5-((4-(thieno[3,2-b]pyridin-7-yloxy)piperidin-1-yl)methyl)isoxazol-3-yl)oxy)ethoxy)ethoxy)ethoxy)ethyl)-1H-indole-5-carbonyl)piperazin-1-yl)-2-oxoethyl)-2-(methylamino)propanamide]
IRAK-M
  remaining binding at 1 µM: < 25%
[1]
  IC50: 300 to 3000 nM

## CN[C@@H](C)C(=O)N[C@H](C(=O)N1CCN(C(=O)c2ccc3c(c2)cc(C)n3CCOCCOc2cc(CN3CCC(Oc4ccnc5ccsc45)CC3)on2)CC1)C1CCCCC1 [Example 54, (S)-N-((S)-1-cyclohexyl-2-(4-(2-methyl-1-(2-(2-((5-((4-(thieno[3,2-b]pyridin-7-yloxy)piperidin-1-yl)methyl)isoxazol-3-yl)oxy)ethoxy)ethyl)-1H-indole-5-carbonyl)piperazin-1-yl)-2-oxoethyl)-2-(methylamino)propanamide]
IRAK-M
  remaining binding at 1 µM: 25 to 50%
[1]
  IC50: < 300 nM

## CN[C@@H](C)C(=O)N[C@H](C(=O)N1CCN(C(=O)c2ccc3c(c2)cc(C)n3CCOCCOCCOc2cc(CN3CCC(Oc4ccnc5ccsc45)CC3)on2)CC1)C1CCCCC1 [Example 55, (S)-N-((S)-1-cyclohexyl-2-(4-(2-methyl-1-(2-(2-(2-((5-((4-(thieno[3,2-b]pyridin-7-yloxy)piperidin-1-yl)methyl)isoxazol-3-yl)oxy)ethoxy)ethoxy)ethyl)-1H-indole-5-carbonyl)piperazin-1-yl)-2-oxoethyl)-2-(methylamino)propanamide]
IRAK-M
  remaining binding at 1 µM: 25 to 50%
[1]
  IC50: 300 to 3000 nM

## CN[C@@H](C)C(=O)N[C@H](C(=O)N1CCN(C(=O)c2ccc3c(c2)cc(C)n3CCOCCOCCOc2cc(CN3CCC(Oc4ccnc5ccsc45)CC3)on2)C[C@H]1C)C1CCCCC1 [Example 56, (S)-N-((S)-1-cyclohexyl-2-((R)-2-methyl-4-(2-methyl-1-(2-(2-(2-((5-((4-(thieno[3,2-b]pyridin-7-yloxy)piperidin-1-yl)methyl)isoxazol-3-yl)oxy)ethoxy)ethoxy)ethyl)-1H-indole-5-carbonyl)piperazin-1-yl)-2-oxoethyl)-2-(methylamino)propanamide]
IRAK-M
  remaining binding at 1 µM: 50 to 75%
[1]
  IC50: 300 to 3000 nM

## CN[C@@H](C)C(=O)N[C@H](C(=O)N1CCN(C(=O)c2ccc3c(c2)c(F)c(C)n3CCOCCOCCOc2cc(CN3CCC(Oc4ccnc5ccsc45)CC3)on2)CC1)C1CCCCC1 [Example 57, (S)-N-((S)-1-cyclohexyl-2-(4-(3-fluoro-2-methyl-1-(2-(2-(2-((5-((4-(thieno[3,2-b]pyridin-7-yloxy)piperidin-1-yl)methyl)isoxazol-3-yl)oxy)ethoxy)ethoxy)ethyl)-1H-indole-5-carbonyl)piperazin-1-yl)-2-oxoethyl)-2-(methylamino)propanamide]
IRAK-M
  remaining binding at 1 µM: 25 to 50%
[1]
  IC50: 300 to 3000 nM

## CN[C@@H](C)C(=O)N[C@H](C(=O)N1CCC[C@H]1c1nc(C(=O)c2cccc(OCCOCCOc3cc(CN4CCC(Oc5ccnc6ccsc56)CC4)on3)c2)cs1)C1CCCCC1 [Example 58, (S)-N-((S)-1-cyclohexyl-2-oxo-2-((S)-2-(4-(3-(2-(2-((5-((4-(thieno[3,2-b]pyridin-7-yloxy)piperidin-1-yl)methyl)isoxazol-3-yl)oxy)ethoxy)ethoxy)benzoyl)thiazol-2-yl)pyrrolidin-1-yl)ethyl)-2-(methylamino)propanamide]
IRAK-M
  remaining binding at 1 µM: < 25%
[1]
  IC50: < 300 nM

## CN[C@@H](C)C(=O)N[C@H](C(=O)N1CCC[C@H]1c1nc(C(=O)c2cccc(OCCOCCOCCOCCOc3cc(CN4CCC(Oc5ccnc6ccsc56)CC4)on3)c2)cs1)C1CCCCC1 [Example 60, (S)-N-((S)-1-cyclohexyl-2-oxo-2-((S)-2-(4-(3-(2-(2-(2-(2-((5-((4-(thieno[3,2-b]pyridin-7-yloxy)piperidin-1-yl)methyl)isoxazol-3-yl)oxy)ethoxy)ethoxy)ethoxy)ethoxy)benzoyl)thiazol-2-yl)pyrrolidin-1-yl)ethyl)-2-(methylamino)propanamide]
IRAK-M
  remaining binding at 1 µM: < 25%
[1]
  IC50: < 300 nM
